The results in this text go back to paper PMC4351682, “Formononetin inhibits enterovirus 71 replication by regulating COX- 2/PGE2 expression” (Virology Journal, 2015).

The structures appear in SMILES notation.

The test system of one assay is PGE2. The experiment in a line: PGE2 release assay (EIA) in EV71-infected SK-N-SH cells. Type of assay: cell-based. The note with it: pretreatment 24 h, formononetin 14.91 μmol/L, pirodavir 1.08 μmol/L, supernatant at 24 h p.i. On the procedure: Figure 4 Formononetin could inhibit EV71-induced COX-2 expression and PGE 2 production. (A) Formononetin but not pirodavir can reduce the expression of COX-2 induced by EV71 infection. SK-N-SH cells were mock-infected or infected with 480 pfu/well of EV71 (SHZH98) for 2 h. The cells were then treated with formononetin (14.91 μmol/L) and pirodavir (1.08 μmol/L), respectively, for 24 h. The cells were harvested and EV71-VP1 and COX-2 were examined by western blot. (B) Formononetin but not pirodavir can reduce the release of PGE2 stimulated by EV71 infection. SK-N-SH cells were pretreated with formononetin (14.91 μmol/L) or pirodavir (1.08 μmol/L) for 24 h. The cells were infected with 4.8 × 10^5 pfu/well of EV71 (SHZH98). At 24 h p.i., the culture supernatants were harvested for PGE2 release assay. For the detection of PGE2 release, SK–N–SH cells (3 × 10^5 cells/well) were seeded into 24-well culture plates and were incubated for 16 h. And then the cells were serum-deprived for 24 h and incubated with EV71 for the indicated time intervals. When drugs were used, they were added 24 h prior to the application of EV71. After treatment, the supernatants were harvested. The supernatant from each sample was assayed using a PGE2 EIA kit (AMEKO) following the manufacturer’s instruction. […] The absorbance of each well was measured at 450 nm.

The next assay deals with EV71 (SHZH98). The experiment in a line: Time course assay (CPE) in SK-N-SH cells. Type of assay: cell-based, enterovirus 71. The note with it: for Reduction of virus-induced CPE, time course: CPE at 48 h. As for the experimental part: Figure 1 The chemical structure of formononetin and time course assay. (A) The illustration of the protocol of viral adsorption and treatment with formononetin and pirodavir. SK-N-SH cells were infected with 80 pfu/well of EV71 (SHZH98). Formononetin (9.21 μM) and pirodavir (0.84 μM) was added at the indicated times, respectively. […] The cytopathic effect (CPE) assay was shown. (C) The chemical structure of formononetin.
The antiviral activity of formononetin was examined at different time periods before and after viral infection as shown in Figure 1A. Briefly, cells (3 × 10^4 cells/well) were seeded and incubated for 16 h. The cell monolayer was then infected with EV71 of 80 pfu/well. Different concentrations of formononetin were supplemented into cells following the protocol. Cells were then incubated for another 48 h and assayed with CPE assay.

In another assay the test system is JNK. In words: Western blot of EV71-induced phosphorylation of JNK in SK-N-SH cells. Particulars: pretreatment 24 h, formononetin 14.91 μmol/L, pirodavir 1.08 μmol/L, EV71 30 min. The format is cell-based. As for the experimental part: (§1) Figure 3 Formononetin but not pirodavir reduces the phosphorylation of ERK (A), p38 (B), and JNK (C) induced by EV71 infection. SK-N-SH cells (9 × 10^5 cells/well) were plated into 6-well culture plates. The cells were then pretreated with formononetin (14.91 μmol/L) and pirodavir (1.08 μmol/L), respectively. After 24 h, the cells were mock-infected or infected with 4.8 × 10^5 pfu/well of EV71 (SHZH98) for 15 min (A), 10 min (B), and 30 min (C), respectively. The cells were harvested and ERK (A) p-ERK (A), p38 (B), p-p38 (B), JNK (C), and p-JNK (C) were detected by western blot.
(§2) Cells were lysed in the M-PER mammalian protein extraction reagent (Thermo, Rockford, IL) containing halt protease inhibitor single-use cocktail (Thermo). The protein concentration was determined by the BCA reagents (Thermo). About 10 μg proteins were denatured and applied to sodium dodecyl sulfate-polyacrylamide gel electrophoresis (SDS-PAGE). The electrophoresis products were transferred to a polyvinyl idenefluoride (PVDF) film and PVDF membranes were then incubated at room temperature with specific primary antibody. After a standard washing, membranes were incubated with horse radish peroxidase (HRP)-labeled secondary antibody. The assay developed using a chemiluminescent substrate. […]

Another assay deals with p38. In words: Western blot of EV71-induced phosphorylation of p38 in SK-N-SH cells. The format is cell-based. Particulars: pretreatment 24 h, formononetin 14.91 μmol/L, pirodavir 1.08 μmol/L, EV71 10 min. On the procedure:
as §1, §2
On the technique in general: A western blot detects proteins with antibodies after separation by electrophoresis.

The next assay relates to ERK. The experiment in a line: Western blot of EV71-induced phosphorylation of ERK in SK-N-SH cells. Type of assay: cell-based. The note with it: pretreatment 24 h, formononetin 14.91 μmol/L, pirodavir 1.08 μmol/L, EV71 15 min. As for the experimental part:
as §1, §2

For a further assay, the system named is EV71 VP1 protein. In words: Western blot of EV71 VP1 protein in SK-N-SH cells. The format is cell-based, enterovirus 71. The note with it: EV71 SHZH98 infected SK-N-SH cells.
Excerpt: (§3) Figure 2 The antiviral effect of formononetin and pirodavir against EV71 in SK-N-SH cells. (A) Formononetin and pirodavir reduced the expression of EV71 VP1 protein in SK-N-SH cells by western blot assay. (B) Formononetin and pirodavir reduced the expression of EV71 VP1 protein in SK-N-SH cells by immunofluorescence assay. Cells were examined using a fluorescence microscopy (×100). (C) Formononetin and pirodavir reduced the expression of EV71 VP1 RNA by one-step qRT-PCR assay. *P < 0.001 ^# P < 0.05.
as §2

The test system of the next assay is EV71 VP1 RNA. In words: One-step qRT-PCR of EV71 VP1 RNA in SK-N-SH cells. Type of assay: cell-based, enterovirus 71. The note with it: EV71 SHZH98 480 pfu/well, 24 h treatment.
Excerpt: as §3
SK-N-SH cells (9 × 10^5cells/well) were plated into 6-well culture plates for incubation of 16 h. The medium was removed and cells were infected with EV71 (SHZH98) of 480 pfu/well. After 2 h, various concentrations of formononetin were supplemented for incubation of another 24 h. The total RNA of the infected cells was extracted using the RNeasy Mini kit (QIAGEN) according to the manufacturer’s instructions. The one-step qRT-PCR was performed with SuperScript III Platinum SYBR Green One-step RT PCR Kit (Invitrogen) using the ABI 7500 Fast Real-Time PCR system (Applied Biosystems). The mRNA expression of EV71 VP1 was detected with sense primer 5’-[…]-3’ and antisense primer 5’-[…]-3’ targeting a conserved region of the VP1 gene. The β-actin mRNA was detected using sense primers 5’-TGACGGGGT CACCCACA CTGTGCCCATCTA-3’ and antisense primer 5’-CTAGAAGCATTTG CGGTGGACG ATG-3’.
(In general: In qPCR the cycle at which signal appears reflects the starting amount.)

On to `CCOC(=O)c1ccc(OCCC2CCN(c3ccc(C)nn3)CC2)cc1` [Pirodavir, reference compound], for which the “EV71-stimulated PGE2 release” value in the assay on PGE2 is “not”. Moreover, in the assay on EV71 (SHZH98) (pirodavir 0.84 μM, effective 0–9 h p.i., not before or during the infection), the “Reduction of virus-induced CPE, time course: effective time of addition” value is recorded as “functioned only after viral infection (0–9 h p.i.)”. Also, the “EV71-stimulated phosphorylation of JNK” value with JNK was “not”. Also, the “EV71-stimulated phosphorylation of p38” value in the assay on p38 is “not”. For the same compound, the “EV71-stimulated phosphorylation of ERK” value in the assay on ERK is recorded as “not”. The “Expression of EV71 VP1 protein (western blot)” value in the assay with EV71 VP1 protein is given as “decrease”. The “Levels of EV71 RNA (RT-qPCR)” value with EV71 VP1 RNA is given as “decrease”.

Turning to `COc1ccc(-c2coc3cc(O)ccc3c2=O)cc1` [Formononetin], the “EV71-stimulated PGE2 release” value in the assay on PGE2 is recorded as “attenuated”. The “Reduction of virus-induced CPE, time course” value in the assay on EV71 (SHZH98) (formononetin 9.21 μM added at 24 and 12 h before, and 0 to 6 h after EV71 infection) is given as “able to effectively reduce virus-induced CPE”; with EV71 (SHZH98) (formononetin 9.21 μM added at −1, 9, and 12 h of EV71 infection), “did not exert this effect”. Also, the “EV71-stimulated phosphorylation of JNK” value in the assay on JNK was “significantly attenuated”. Moreover, in the assay with p38, the “EV71-stimulated phosphorylation of p38” value was “significantly attenuated”. Moreover, the “EV71-stimulated phosphorylation of ERK” value in the assay on ERK is reported as “significantly attenuated”. Also, the “Expression of EV71 VP1 protein (western blot)” value in the assay with EV71 VP1 protein is on record as “decrease the expression of VP1 protein in a dose dependent manner”. Also, the “Levels of EV71 RNA (RT-qPCR)” value in the assay with EV71 VP1 RNA is “dose-dependently decreased”.
